From PubChem BioAssay (NCI)
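Step 1: Grow cells in 96-well plates. Step 2: Expose to compound for 48 hours at 5 concentrations. Step 3: Interpolate endpoints linearly; if unreached, use highest concentration. Abbreviation: GI50, concentration required for 50% inhibition of growth. TGI: concentration producing complete growth inhibition.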

Assays:
Assay in all cases: NCI-60 cell line screen, 48 h
[1] = tested on: HOP-62 NSCLC
[2] = tested on: HT29 colon
[3] = tested on: IGROV1 ovarian
[4] = tested on: MALME-3M melanoma
[5] = tested on: OVCAR-4 ovarian
[6] = tested on: SF-539 CNS
[7] = tested on: SK-MEL-5 melanoma
[8] = tested on: SN12C renal
[9] = tested on: SNB-75 CNS
[10] = tested on: SW-620 colon

Compound	GI50 [1] [µM]	TGI [1] [µM]	GI50 [2] [µM]	TGI [2] [µM]	GI50 [3] [µM]	TGI [3] [µM]	GI50 [4] [µM]	TGI [4] [µM]	GI50 [5] [µM]	TGI [5] [µM]	GI50 [6] [µM]	TGI [6] [µM]	GI50 [7] [µM]	TGI [7] [µM]	GI50 [8] [µM]	TGI [8] [µM]	GI50 [9] [µM]	TGI [9] [µM]	GI50 [10] [µM]	TGI [10] [µM]
Cc1ccc(Sc2cc3c(oc2=O)-c2ccccc2OC3O)cc1 (centres undefined)	22.5	44.7	30.9	> 100	22.4	49.2	25	49.2	33.1	> 100	19.3	33.8	17.1	32.9	29.4	73.3	30.5	81.2	22.4	52.3
Cc1coc2c1C(OC(=O)C(C)C)C1(C)C(C)CCC(O)C1C2=O (centres undefined)		> 100		> 100		> 100		> 100		> 100		> 100		> 100		> 100		> 100		> 100
C[C@@H]1COCCN1c1cc(C2(O)C[C@H]3CC[C@@H](C2)O3)c2cnn(-c3ccn[nH]3)c2n1 (some centres undefined)	0.0786	1.41	0.181	> 100	0.0453	0.977	0.0656	0.462	0.0397	0.419	0.023	0.0946	0.107	0.279	0.143	4.09	0.043	0.411	0.187	> 37.7
C[C@@H](Nc1nc(Nc2ccc(F)c(Cl)c2)nc2ccccc12)C1CC1	11.2	25	2.72	11.7	3.06	17.7	1.66	3.65	1.73	12.9	3.16	12.4	1.55	2.96	3.25	14.4	4.08	22.3	3.14	13.9
CCN(Cc1c(Cl)cccc1Cl)c1ccc(CO)c(Cl)c1	2.15	21.2	2.43	15.3	< 0.0253		12.6	27.2	0.194	8.24	15.1	28.6	2.86	19.5	11.7	24	11	25.3	0.549	17
CC1=NN(c2nc(N)nc(/C=C\c3ccc([N+](=O)[O-])s3)n2)C(C)(C)C1	> 100	> 100	56.4	> 100	> 100	> 100	> 100	> 100	> 100	> 100	> 100	> 100	40.9	> 100	> 100	> 100	29.9	> 100	> 100	> 100
